Experimental data from US7666871B2, “Oxazole derivatives as histamine H3 receptor agents, preparation and therapeutic uses” (Eli Lilly and Company, priority 2004, dated 2010).

Target: T1, human H3R (Homo sapiens, UniProt Q9Y5N1)
T1 construct: expressed in transfected cells; pcDNA3.1(+) vector, G418 selection), membranes
Assay: Histamine H3 Receptor Binding Assay (competitive inhibition SPA, membranes of transfected HEK293 cells)
Settings: Ki's at the human H3R
From the text: The compounds of the present invention can readily be evaluated by using a competitive inhibition Scintillation Proximity Assay (SPA) based on a H3R binding assay using R-[3H] α methylhistamine as ligand. Stable cell lines, including but not limited to HEK can be transfected with cDNA coding for H3R to prepare membranes used for the binding assay. The technique is illustrated below (Preparation of Histamine Receptor Subtype Membranes) for the histamine receptor subtypes.
cDNA for the human histamine 1 receptor (H1R) was cloned into a mammalian expression vector containing the CMV promoter (pcDNA3.1(+), Invitogen) and transfected into HEK293 cells using the FuGENE Tranfection Reagent (Roche Diagnostics Corporation). Transfected cells were selected using G418 (500 μ/mL). Colonies that survived selection were grown and tested for histamine binding to cells grown in 96-well dishes using a scintillation proximity assay (SPA) based radioligand binding assay. Briefly, cells, representing individual selected clones, were grown as confluent monolayers in 96-well dishes (Costar Clear Bottom Plates, #3632) by seeding wells with 25,000 cells and growing for 48 hours (37° C., 5% CO2). […] Plates were counted in a Wallac Trilux 1450 Microbeta scintillation counter. […]
cDNA for the human histamine 3 receptor was cloned and expressed as described in (A. Preparation H1R membranes), above. […]

T1 sequence (Q9Y5N1 whole entry): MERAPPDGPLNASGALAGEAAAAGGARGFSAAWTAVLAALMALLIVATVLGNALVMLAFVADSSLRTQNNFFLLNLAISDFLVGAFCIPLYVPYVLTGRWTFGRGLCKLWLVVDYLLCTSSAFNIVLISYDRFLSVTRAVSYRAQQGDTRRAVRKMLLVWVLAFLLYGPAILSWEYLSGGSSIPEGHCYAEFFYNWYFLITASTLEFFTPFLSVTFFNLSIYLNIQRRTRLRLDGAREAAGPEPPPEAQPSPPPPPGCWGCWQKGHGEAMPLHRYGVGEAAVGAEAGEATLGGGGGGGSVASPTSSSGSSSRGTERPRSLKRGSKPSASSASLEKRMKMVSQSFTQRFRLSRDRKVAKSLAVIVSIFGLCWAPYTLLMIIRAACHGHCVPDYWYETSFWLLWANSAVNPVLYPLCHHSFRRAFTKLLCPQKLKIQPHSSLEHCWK

Ki [nM]	SMILES
1.6	CS(=O)(=O)Nc1ccc(-c2ccc(-c3nc(CN4CCCC4)co3)cc2)cc1
14.3	COC[C@@H]1CCCN1CCc1nc(-c2ccc(-c3cccnc3)cc2)oc1C
